# Measurements taken from patent publication US8536172B2, “Inhibitors of JNK” (Roche Palo Alto LLC, priority 2009, dated 2013).
# Target: Human JNK2α2 (Homo sapiens (Human), UniProt P45984)
# Assay: JNK assay in vitro: phosphorylation of GST-ATF2 (19-96) with [γ-33P] ATP, JNK2
# Type: biochemical
# Settings: 1 nM enzyme, 1 μM ATF2, 8 μM ATP (Km), 30° C. 30 min
# Procedure: JNK activity was measured by phosphorylation of GST-ATF2 (19-96) with [γ-^33P] ATP. […] Human JNK2α2 assay contains 1 nM enzyme, 1 μM ATF2, 8 μM ATP with 1 uCi [γ-^33P] ATP. Human JNK1α1 assay contains 2 nM enzyme, 1 μM ATF2, 6 μM ATP with 1 μCi [γ-^33P] ATP. Human JNK3 (Upstate Biotech #14-501M) assay contains 2 nM enzyme, 1 μM ATF2, 4 μM ATP with 1 μCi [γ-^33P] ATP. The enzyme assay was carried out in the presence or absence of several compound concentrations. JNK and compound were pre-incubated for 10 min., followed by initiation of the enzymatic reaction by adding ATP and the substrate. The reaction mixture was incubated at 30° C. for 30 min. At the end of incubation, the reaction was terminated by transferring 25 μl of the reaction mixture to 150 μl of 10% glutathione Sepharose® slurry (Amersham #27-4574-01) containing 135 mM EDTA. The reaction product was captured on the affinity resin, and washed on a filtration plate (Millipore, MABVNOB50) with phosphate buffered saline for six times to remove free radionucleotide. The incorporation of ^33P into ATF2 was quantified on a microplate scintillation counter (Packard Topcount). Compound inhibition potency on JNK was measured by IC50 value generated from ten concentration inhibition curves fitted into the 3-parameter model: % inhibition=Maximum/(1+(IC50/[Inhibitor])^slope). Data were analyzed on Microsoft Excel for parameter estimation.
# Human JNK2α2, sequence (P45984 whole entry): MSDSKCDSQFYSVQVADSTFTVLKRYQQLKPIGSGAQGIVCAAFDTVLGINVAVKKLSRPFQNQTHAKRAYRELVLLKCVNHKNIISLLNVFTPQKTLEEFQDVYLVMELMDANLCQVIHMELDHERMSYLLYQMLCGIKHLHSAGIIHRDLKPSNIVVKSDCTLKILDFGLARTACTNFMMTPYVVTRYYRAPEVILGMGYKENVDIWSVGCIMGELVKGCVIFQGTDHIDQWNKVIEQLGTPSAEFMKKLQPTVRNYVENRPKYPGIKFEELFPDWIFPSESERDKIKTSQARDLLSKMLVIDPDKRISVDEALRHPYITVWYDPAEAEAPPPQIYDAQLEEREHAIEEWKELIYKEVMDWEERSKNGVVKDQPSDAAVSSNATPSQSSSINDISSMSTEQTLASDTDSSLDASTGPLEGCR
row,IC50 [nM],SMILES
1,33.4,"CC(C)(O)[C@H]1CC[C@H](Nc2nccc(-n3ccc4c(N5CCN(C(=O)CC#N)CC5)cccc43)n2)CC1 [Compound I-45, 3-[4-(1-{2-[4-(1-Hydroxy-1-methyl-ethyl)-cyclohexylamino]-pyrimidin-4-yl}-1H-indol-4-yl)-piperazin-1-yl]-3-oxo-propionitrile]"
2,198,"N#CCC(=O)O[C@@H]1CCC[C@H](Nc2nccc(-n3ccc4c(N5CCN(C(=O)CC#N)CC5)cccc43)n2)C1 [Compound I-33, Cyano-acetic acid (1R,3S)-3-(4-{4-[4-(2-cyano-acetyl)-piperazin-1-yl]-indol-1-yl}-pyrimidin-2-ylamino)-cyclohexyl ester]"
3,432,"CC(=O)N1CCN(c2cccc3c2ccn3-c2ccnc(N[C@H]3CC[C@H](C(C)(C)O)CC3)n2)CC1 [Compound I-43, 1-[4-(1-{2-[4-(1-Hydroxy-1-methyl-ethyl)-cyclohexylamino]-pyrimidin-4-yl}-1H-indol-4-yl)-piperazin-1-yl]-ethanone]"
4,55.5,"N#CCC(=O)N1CCN(c2cccc3c2ccn3-c2ccnc(N[C@H]3CC[C@H](CN4CC[C@H](O)C4)CC3)n2)CC1 [Compound I-28, 3-[4-(1-{2-[4-((S)-3-Hydroxy-pyrrolidin-1-ylmethyl)-cyclohexylamino]-pyrimidin-4-yl}-1H-indol-4-yl)-piperazin-1-yl]-3-oxo-propionitrile]"
5,525,"CC(=O)N1CCN(c2cccc3c2ccn3-c2ccnc(N[C@H]3CC[C@H](CN4CC[C@@H](O)C4)CC3)n2)CC1 [Compound I-29, 1-[4-(1-{2-[4-((R)-3-Hydroxy-pyrrolidin-1-ylmethyl)-cyclohexylamino]-pyrimidin-4-yl}-1H-indol-4-yl)-piperazin-1-yl]-ethanone]"
6,150,"N#CCC(=O)N1CCN(c2cccc3c2ccn3-c2ccnc(N[C@H]3CC[C@H](O)C3)n2)CC1 [Compound I-60, 3-(4-{1-[2-((1S,3S)-3-Hydroxy-cyclopentylamino)-pyrimidin-4-yl]-1H-indol-4-yl}-piperazin-1-yl)-3-oxo-propionitrile]"
7,89.2,"N#CCC(=O)N1CCN(c2cccc3c2ccn3-c2ccnc(N[C@H]3CCC[C@H](O)C3)n2)CC1 [Compound I-34, 3-(4-{1-[2-((1S,3S)-3-Hydroxy-cyclohexylamino)-pyrimidin-4-yl]-1H-indol-4-yl}-piperazin-1-yl)-3-oxo-propionitrile]"
8,54.5,"CC(C)(C)N1CCN(C(=O)[C@H]2CC[C@H](Nc3nccc(-n4ccc5c(N6CCC(S(C)(=O)=O)CC6)cccc54)n3)CC2)CC1 [Compound I-48, (4-tert-Butyl-piperazin-1-yl)-(4-{4-[4-(4-methanesulfonyl-piperidin-1-yl)-indol-1-yl]-pyrimidin-2-ylamino}-cyclohexyl)-methanone]"
9,105,"N#CCC(=O)N1CCN(c2cccc3c2ccn3-c2ccnc(N[C@@H]3CC[C@@H](O)C3)n2)CC1 [Compound I-61, 3-(4-{1-[2-((1R,3R)-3-Hydroxy-cyclopentylamino)-pyrimidin-4-yl]-1H-indol-4-yl}-piperazin-1-yl)-3-oxo-propionitrile]"
10,570,"N#CCC(=O)N1CCN(c2cccc3c2ccn3-c2ccnc(N[C@@H]3CC[C@H](O)C3)n2)CC1 [Compound I-59, 3-(4-{1-[2-((1R,3S)-3-Hydroxy-cyclopentylamino)-pyrimidin-4-yl]-1H-indol-4-yl}-piperazin-1-yl)-3-oxo-propionitrile]"
11,59.8,"CS(=O)(=O)C1CCN(c2cccc3c2ccn3-c2ccnc(N[C@H]3CC[C@H](C(=O)N4CCN(C5CCC5)CC4)CC3)n2)CC1 [Compound I-49, (4-Cyclobutyl-piperazin-1-yl)-(4-{4-[4-(4-methanesulfonyl-piperidin-1-yl)-indol-1-yl]-pyrimidin-2-ylamino}-cyclohexyl)-methanone]"
12,82.7,"CCOC1CCN(C(=O)[C@H]2CC[C@H](Nc3nccc(-n4ccc5c(N6CCC(S(C)(=O)=O)CC6)cccc54)n3)CC2)CC1 [Compound I-30, (4-Ethoxy-piperidin-1-yl)-(4-{4-[4-(4-methanesulfonyl-piperidin-1-yl)-indol-1-yl]-pyrimidin-2-ylamino}-cyclohexyl)-methanone]"
13,19.2,"CS(=O)(=O)N(CCO)[C@H]1CC[C@H](Nc2nccc(-n3ccc4c(N5CCN(C(=O)CC#N)CC5)cccc43)n2)CC1 [Compound I-44, N-[4-(4-{4-[4-(2-Cyano-acetyl)-piperazin-1-yl]-indol-1-yl}-pyrimidin-2-ylamino)-cyclohexyl]-N-(2-hydroxy-ethyl)-methanesulfonamide]"
14,21.8,"CS(=O)(=O)C1CCN(c2cccc3c2ccn3-c2ccnc(N[C@H]3CC[C@H](C(=O)N4CCN5CCCC5C4)CC3)n2)CC1 (stereo partly shown) [Compound I-52, (Hexahydro-pyrrolo[1,2-a]pyrazin-2-yl)-(4-{4-[4-(4-methanesulfonyl-piperidin-1-yl)-indol-1-yl]-pyrimidin-2-ylamino}-cyclohexyl)-methanone]"
15,177,"N#CCC(=O)N1CCN(c2cccc3c2ccn3-c2ccnc(N[C@H]3CCC[C@@H](O)C3)n2)CC1 [Compound I-35, 3-(4-{1-[2-((1S,3R)-3-Hydroxy-cyclohexylamino)-pyrimidin-4-yl]-1H-indol-4-yl}-piperazin-1-yl)-3-oxo-propionitrile]"
16,13.9,"CC(=O)N1CCN(c2cccc3c2c(C(N)=O)cn3-c2ccnc(N[C@H]3CC[C@H](CS(C)(=O)=O)CC3)n2)CC1 [Compound I-64, 4-(4-Acetyl-piperazin-1-yl)-1-[2-(4-methanesulfonylmethyl-cyclohexylamino)-pyrimidin-4-yl]-1H-indole-3-carboxylic acid amide]"

row,SMILES,IC50 [nM]
1,"CS(=O)(=O)N[C@H]1CC[C@H](Nc2nccc(-n3ccc4c(N5CCN(S(N)(=O)=O)CC5)cccc43)n2)CC1 [Compound I-8, 4-{1-[2-(4-Methanesulfonylamino-cyclohexylamino)-pyrimidin-4-yl]-1H-indol-4-yl}-piperazine-1-sulfonic acid amide]",82.3
2,"N#CCC(=O)N1CCN(c2cccc3c2ccn3-c2ccnc(NC3CCCCC3)n2)CC1 [Compound I-38, 3-{4-[1-(2-Cyclohexylamino-pyrimidin-4-yl)-1H-indol-4-yl]-piperazin-1-yl}-3-oxo-propionitrile]",42.8
3,"CS(=O)(=O)N[C@H]1CC[C@H](Nc2nccc(-n3ccc4c(N5CCN(S(C)(=O)=O)CC5)cccc43)n2)CC1 [Compound I-3, N-(4-{4-[4-(4-Methanesulfonyl-piperazin-1-yl)-indol-1-yl]-pyrimidin-2-ylamino}-cyclohexyl)-methanesulfonamide]",182
4,"N#CCC(=O)N1CCN(c2cccc3c2ccn3-c2ccnc(N[C@H]3CC[C@H](CO)CC3)n2)CC1 [Compound I-27, 3-(4-{1-[2-(4-Hydroxymethyl-cyclohexylamino)-pyrimidin-4-yl]-1H-indol-4-yl}-piperazin-1-yl)-3-oxo-propionitrile]",12.8
5,"CS(=O)(=O)N[C@H]1CC[C@H](Nc2nccc(-n3ccc4c(N5CCNCC5)cccc43)n2)CC1 [Compound I-1, N-{4-[4-(4-Piperazin-1-yl-indol-1-yl)-pyrimidin-2-ylamino]-cyclohexyl}-methanesulfonamide]",1430
6,"CS(=O)(=O)N[C@H]1CC[C@H](Nc2nccc(-n3ccc4c(N5CCN(C(N)=O)CC5)cccc43)n2)CC1 [Compound I-7, 4-{1-[2-(4-Methanesulfonylamino-cyclohexylamino)-pyrimidin-4-yl]-1H-indol-4-yl}-piperazine-1-carboxylic acid amide]",86.1
